# Test results published in patent US10723695B2, “Microbiocidal phenylamidine derivatives” (SYNGENTA PARTICIPATIONS AG, priority 2015, dated 2020).
# What was measured:
# [1] = test system: Blumeria graminis f. sp. tritici (Erysiphe graminis f. sp. tritici); test: Blumeria graminis f. sp. tritici / wheat / leaf disc preventative (powdery mildew on wheat); format: in vivo; conditions: foliar, wheat leaf segments cv. Kanzler, compared to untreated control leaf disks, read-out: disease control
# Excerpt: Blumeria graminis f. sp. tritici (Erysiphe graminis f. sp. tritici)/Wheat/Leaf Disc Preventative (Powdery Mildew on Wheat) Wheat leaf segments cv. Kanzler were placed on agar in a multiwell plate (24-well format) and sprayed with the formulated test compound diluted in water. The leaf disks were inoculated by shaking powdery mildew infected plants above the test plates 1 day after application.
# Phakopsora pachyrhizi = Phakopsora pachyrhizi / soybean / leaf disk preventative (soybean rust); format: in vivo; conditions: foliar, soybean leaf disks, compared to untreated control leaf disks, read-out: disease control
# Outline: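 Four-week-old soybean plants sprayed with formulated compound in water; leaf disks cut 1 day later, inoculated on the lower surface with spore suspension. Held 24-36 h dark at 20° C, 75% rh, then 20° C with 12 h light/day; % diseased disk area scored 12-14 days after application.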
# [2] = test system: Puccinia recondita f. sp. tritici; test: Puccinia recondita f. sp. tritici / wheat / leaf disc preventative (brown rust); format: in vivo; conditions: foliar, wheat leaf segments cv. Kanzler, compared to untreated control leaf disks, read-out: disease control
# Outline: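 Wheat leaf segments (cv. Kanzler) on agar were sprayed preventatively with formulated compound diluted in water and inoculated with spores 1 day later. They were incubated at 19 °C, 75% rh, 12 h light/12 h dark. Percent disease control versus untreated was scored 7-9 days after application.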
# [3] = test system: Puccinia recondita f. sp. tritici; test: Puccinia recondita f. sp. tritici / wheat / leaf disc curative (brown rust); format: in vivo; conditions: foliar, 24 h, wheat leaf segments cv. Kanzler, curative (applied 1 day after inoculation), compared to untreated control leaf disks, read-out: disease control
# Experimental: Puccinia recondita f. sp. tritici/Wheat/Leaf Disc Curative (Brown Rust) Wheat leaf segments cv. Kanzler are placed on agar in multiwell plates (24-well format). The leaf segments are inoculated with a spore suspension of the fungus. Plates were stored in darkness at 19° C. and 75% rh. The formulated test compound diluted in water was applied 1 day after inoculation.
Compound,melting point [°C],pest or weed control at 200 ppm [1] [%],pest or weed control at 200 ppm (Phakopsora pachyrhizi) [%],pest or weed control at 200 ppm [2] [%],pest or weed control at 200 ppm [3] [%]
CCN(C)/C=N/c1cc(OC)c(C(O)(C(F)(F)F)C(F)(F)F)cc1C [Compound E1.001],126 to 128,≥ 80,≥ 80,≥ 80,≥ 80
CCN(C)/C=N/c1cc(OC)c(C(O)(c2ccc(OC)cc2)C(F)(F)F)cc1C (centres unmarked) [Compound E1.011],67 to 71,≥ 80,≥ 80,≥ 80,≥ 80
CCN(C)/C=N/c1cc(OC)c(C(O)(c2ccc(Cl)cc2Cl)C(F)(F)F)cc1C (centres unmarked) [Compound E1.017],119 to 121,≥ 80,≥ 80,≥ 80,≥ 80
CCN(C)/C=N/c1cc(OC)c(C(O)(c2ccc(F)cc2F)C(F)(F)F)cc1C (centres unmarked) [Compound E1.018],113 to 114,≥ 80,≥ 80,≥ 80,≥ 80
CCN(C)/C=N/c1cc(OC)c(C(O)(c2ccc(C)cc2)C(F)(F)F)cc1C (centres unmarked) [Compound E1.020],112 to 114,≥ 80,≥ 80,≥ 80,≥ 80
CCN(C)/C=N/c1cc(OC)c(C(O)(c2cccc(C#N)c2)C(F)(F)F)cc1C (centres unmarked) [Compound E1.022],38 to 40,≥ 80,≥ 80,≥ 80,≥ 80
CCN(C)/C=N/c1cc(OC)c(C(O)(c2cccc(Br)c2)C(F)(F)F)cc1C (centres unmarked) [Compound E1.023],98 to 100,≥ 80,≥ 80,≥ 80,≥ 80
COc1cc(/N=C/N(C)C(C)C)c(C)cc1[C@](O)(c1ccccc1)C(F)(F)F [Compound E1.027],110.5 to 111.7,≥ 80,≥ 80,≥ 80,≥ 80
CCN(C)/C=N/c1cc(OC)c(C(O)(c2ccccc2Cl)C(F)(F)F)cc1C (centres unmarked) [Compound E1.033],97 to 100,≥ 80,≥ 80,≥ 80,≥ 80
CCN(C)/C=N/c1cc(OC)c(C(O)(c2ccccc2F)C(F)(F)F)cc1C (centres unmarked) [Compound E1.034],96 to 98,≥ 80,≥ 80,≥ 80,≥ 80
CCN(C)/C=N/c1cc(OC)c(C(O)(C2CC2)C(F)(F)F)cc1C (centres unmarked) [Compound E1.052],64 to 72,≥ 80,≥ 80,≥ 80,≥ 80
COc1cc(/N=C/N(C)C(C)C)c(C)cc1C(O)(C1CC1)C(F)(F)F (centres unmarked) [Compound E1.064],90 to 93,≥ 80,≥ 80,≥ 80,≥ 80
COc1cc(/N=C/N(C)C(C)C)c(C)cc1C(O)(C(C)C)C(F)(F)F (centres unmarked) [Compound E1.067],78 to 79,≥ 80,≥ 80,≥ 80,≥ 80
C=CCC(O)(c1cc(C)c(/N=C/N(C)CC)cc1OC)C(F)(F)F (centres unmarked) [Compound E1.071],123 to 127,≥ 80,≥ 80,≥ 80,≥ 80
CCN(C)/C=N/c1cc(OC)c(C(O)(Cc2cccc(OC)n2)C(F)(F)F)cc1C (centres unmarked) [Compound E1.100],92 to 95,≥ 80,≥ 80,≥ 80,≥ 80

# More lines, main results first:
melting point [°C],Compound,pest or weed control at 200 ppm [1] [%],pest or weed control at 200 ppm (Phakopsora pachyrhizi) [%],pest or weed control at 200 ppm [2] [%],pest or weed control at 200 ppm [3] [%]
102 to 104,CCN(C)/C=N/c1cc(OC)c(C(O)(c2ccc(F)cc2)C(F)(F)F)cc1C (centres unmarked) [Compound E1.004],≥ 80,≥ 80,≥ 80,≥ 80
160 to 162,CCN(C)/C=N/c1cc(OC)c(C(O)(c2ccccc2)C(F)(F)F)cc1C (centres unmarked) [Compound E1.006],≥ 80,≥ 80,≥ 80,≥ 80
121 to 123,CCN(C)/C=N/c1cc(OC)c(C(O)(c2cccc(C(F)(F)F)c2)C(F)(F)F)cc1C (centres unmarked) [Compound E1.010],≥ 80,≥ 80,≥ 80,≥ 80
125 to 127,CCN(C)/C=N/c1cc(OC)c(C(O)(c2cccc(C)c2)C(F)(F)F)cc1C (centres unmarked) [Compound E1.016],≥ 80,≥ 80,≥ 80,≥ 80
115 to 117,CCN(C)/C=N/c1cc(OC)c(C(O)(c2ccccc2C)C(F)(F)F)cc1C (centres unmarked) [Compound E1.024],≥ 80,≥ 80,≥ 80,≥ 80
110.5 to 111.7,COc1cc(/N=C/N(C)C(C)C)c(C)cc1[C@@](O)(c1ccccc1)C(F)(F)F [Compound E1.026],≥ 80,≥ 80,≥ 80,≥ 80
130 to 132,CCN(C)/C=N/c1cc(OC)c(C(O)(c2cccc(F)c2)C(F)(F)F)cc1C (centres unmarked) [Compound E1.029],≥ 80,≥ 80,≥ 80,≥ 80
137 to 140,CCN(C)/C=N/c1cc(OC)c(C(O)(c2cc(F)ccc2F)C(F)(F)F)cc1C (centres unmarked) [Compound E1.031],≥ 80,≥ 80,≥ 80,≥ 80
114 to 116,CCN(C)/C=N/c1cc(OC)c(C(O)(c2ccccc2Br)C(F)(F)F)cc1C (centres unmarked) [Compound E1.035],≥ 80,≥ 80,≥ 80,≥ 80
73 to 76,CCC(O)(c1cc(C)c(/N=C/N(C)C(C)C)cc1OC)C(F)(F)F (centres unmarked) [Compound E1.063],≥ 80,≥ 80,≥ 80,≥ 80
110 to 113,C=C(C)C(O)(c1cc(C)c(/N=C/N(C)C(C)C)cc1OC)C(F)(F)F (centres unmarked) [Compound E1.081],≥ 80,≥ 80,≥ 80,≥ 80
90 to 95,C=C(C)CC(O)(c1cc(C)c(/N=C/N(C)C(C)C)cc1OC)C(F)(F)F (centres unmarked) [Compound E1.082],≥ 80,≥ 80,≥ 80,≥ 80
45 to 50,C=CCC(O)(c1cc(C)c(/N=C/N(C)C(C)C)cc1OC)C(F)(F)F (centres unmarked) [Compound E1.084],≥ 80,≥ 80,≥ 80,≥ 80
82 to 85,CCN(C)/C=N/c1cc(OC)c(C(O)(Cc2cc(C)ncn2)C(F)(F)F)cc1C (centres unmarked) [Compound E1.099],≥ 80,≥ 80,≥ 80,≥ 80
82 to 84,CCN(C)/C=N/c1cc(OC)c(C(O)(c2ccccc2)C(C)C)cc1C (centres unmarked) [Compound E1.124],,≥ 80,≥ 80,≥ 80
90 to 92,CCN(C)/C=N/c1cc(OC)c(C(O)(c2ccccc2)C(C)(C)C)cc1C (centres unmarked) [Compound E1.125],,≥ 80,≥ 80,≥ 80
87 to 89,CCN(C)/C=N/c1cc(OC)c(C(O)(CC)c2ccccc2)cc1C (centres unmarked) [Compound E1.126],≥ 80,≥ 80,≥ 80,≥ 80
